Marks after values point to notes of the source that are not given here. Residues, ends and D or L forms follow the SMILES beside them.
How the values were obtained:
Assay type in all cases: in vivo
Spodoptera littoralis = test: Binary choice glass-fiber disc feeding bioassay (Feeding Index); conditions: for Feeding response in words, in combination with glucose: glucose 0.05M; for Feeding response in words, in combination with glucose / Feeding response in words, in combination with sucrose: 100, 1000 and 10,000 ppm; for Feeding Index: n = 15; for Feeding response in words, in combination with sucrose: sucrose 0.05M
Experimental: All experiments were done on the final stage larvae of Spodoptera littoralis. Prior to the experiment, the insects were deprived of food for 2 hours. This has been calculated as a period when most insects would commence feeding. Thus, the food from the previous meal has started to pass into and through the gut. The initial experiment investigated whether the insects could “taste” the plant preparations or extracts and whether they stimulated or deterred feeding. […] A negative value indicates a phagostimulant and a positive value indicates an appetite suppressant. Experiments are usually repeated with between 10-20 insects and the data are analysed using the Wilcoxon matched pairs test. A series of controls were used at the start of the experiment to illustrate the difference in the response of the larvae to sucrose and glucose both tested at 0.05M. Results have been presented as means.

[1] = system: larvae of Spodoptera littoralis; test: Behavioral response of cannulated insects to glucose (latency, meal duration, time to second meal); conditions: glucose treated disc, solvent water
Experimental: Material and methods. Final stage larvae were removed from food and after 2 hours, they were cannulated via the oral cavity with […] of a test solution, with water used as a control. The extracts were tested at 10,000 ppm, 1,000 ppm and 100 ppm. The insects were then placed in a Petri dish with a glucose treated glass-fiber disc. The time taken for the insects to start a meal (latency), the duration of a meal (meal duration) and the time taken to take the second meal were recorded. This provides information about whether the extracts once consumed would delay feeding, whether the extracts would alter the duration of a meal once it had started, and whether the time to the second meal would be altered. […] The time to the start of a meal was extended, when compared with the water control, after cannulation with Aloe and Ginseng. Aloe acted as stimulants in the glass-fiber disc bioassays, whereas Ginseng was a potent suppressant. Thus, the Ginseng could be having a negative activity on time to feed, whereas the response to Aloe could be because of a “positive” response. The end effect is the same in that both groups caused an increase in the latency to feed. […] None of the extracts influenced the duration of the first recorded meal.

[2] = system: medial sensilla of Spodoptera littoralis larvae; test: Electrophysiology: neural response of the medial sensilla after cannulation; conditions: for Impulses per second from the medial styloconic sensilla, stimulus C: stimulus KCl (0.05M); for Impulses per second from the medial styloconic sensilla, stimulus P: stimulus amino acid mixture; for Impulses per second from the medial styloconic sensilla, stimulus G: stimulus glucose (0.05M); for Impulses per second from the medial styloconic sensilla, stimulus S: stimulus sucrose (0.05M)
Excerpt: Insects use sensilla on their mouthparts to taste their food. These sensilla contain neurones that respond to compounds in their food. An electrophysiological bioassay has been developed to record the neural impulses from the four neurones in each sensilla. […] Previous experiments have shown that the responsiveness of the insects can be influenced by the diet an insect has been reared on and previous exposure to a compound. The physiological condition of the insect can also influence the responsiveness of these neurones. In these experiments, we […] classify the neurones down to specific neurones but this requires some further experiments not undertaken in this study. […] Each larva was tested with KCl (C=0.05M) as a control, sucrose (S=0.05M), glucose (G=0.05M) and amino acid mix (P=0.05M). A set of experiments were undertaken on a control non-cannulated group of insects. […] Prior to the experiment, the insects had been standardized as in the behavioral experiments.

[3] = in combination with glucose 0.05M, extract 100 ppm
[4] = in combination with glucose 0.05M, extract 1,000 ppm
[5] = in combination with glucose 0.05M, extract 10,000 ppm
[6] = in combination with sucrose 0.05M, extract 100 ppm
[7] = in combination with sucrose 0.05M, extract 1,000 ppm
[8] = in combination with sucrose 0.05M, extract 10,000 ppm
[9] = 30 min after cannulation at 1000 ppm
[10] = 1 h after cannulation at 1000 ppm

Structure (SMILES)	Feeding response in words, in combination with glucose (Spodoptera littoralis)	Feeding Index (Spodoptera littoralis; [3])	Feeding Index (Spodoptera littoralis; [4])	Feeding Index (Spodoptera littoralis; [5])	Feeding Index (Spodoptera littoralis; [6])	Feeding Index (Spodoptera littoralis; [7])	Feeding Index (Spodoptera littoralis; [8])	Feeding response in words, in combination with sucrose (Spodoptera littoralis)	Latency ([1]; concentration 0.1k (100 ppm))	Meal duration ([1]; concentration 0.1k (100 ppm))	Time to 2nd meal ([1]; concentration 0.1k (100 ppm))	Latency ([1]; concentration 1k (1,000 ppm))	Meal duration ([1]; concentration 1k (1,000 ppm))	Time to 2nd meal ([1]; concentration 1k (1,000 ppm))	Latency ([1]; concentration 10k (10,000 ppm))	Meal duration ([1]; concentration 10k (10,000 ppm))	Time to 2nd meal ([1]; concentration 10k (10,000 ppm))	Impulses per second from the medial styloconic sensilla, stimulus C [2, 9]	Impulses per second from the medial styloconic sensilla, stimulus P [2, 9]	Impulses per second from the medial styloconic sensilla, stimulus G [2, 9]	other results
COC(=O)[C@H](Cc1ccccc1)NC(=O)[C@@H](N)CC(=O)O [Aspartame] (H-Asp-Phe-OMe)	stimulated feeding at lower concentrations	−25* %	−31* %	−24%	−15%	14%	15%	not significant	21 min	17 min	15 min	24 min	12 min	15 min	20 min	12 min	17 min	10 impulses per second	24 impulses per second	45 impulses per second	Impulses per second from the medial styloconic sensilla, stimulus S [2, 9]: 57 impulses per second; Impulses per second from the medial styloconic sensilla, stimulus C [2, 10]: 12 impulses per second; Impulses per second from the medial styloconic sensilla, stimulus P [2, 10]: 24 impulses per second; Impulses per second from the medial styloconic sensilla, stimulus G [2, 10]: 25 impulses per second; Impulses per second from the medial styloconic sensilla, stimulus S [2, 10]: 48 impulses per second
OC[C@H]1O[C@@](CO)(O[C@H]2O[C@H](CO)[C@@H](O)[C@H](O)[C@H]2O)[C@@H](O)[C@@H]1O [Sucrose]	–	–	–	–	–	–	–	–	–	–	–	–	–	–	–	–	–	–	–	–	Feeding Index (Spodoptera littoralis; control disc sucrose 0.05M versus treatment disc sucrose 0.05M, 18 hours): 10.7%; Feeding Index (Spodoptera littoralis; control disc sucrose 0.05M versus untreated treatment disc, 18 hours): 46.3* %; Phagostimulant potency in words (Spodoptera littoralis; sucrose versus glucose, both 0.05M): more potent phagostimulant to S. littoralis than glucose
O=C1NS(=O)(=O)c2ccccc21 [Saccharin]	stimulated feeding at lower concentrations	−24* %	−25* %	−18%	−16%	−5%	5%	not significant	24 min	16 min	11 min	24 min	14 min	18 min	25 min	14 min	18 min	9 impulses per second	29 impulses per second	45 impulses per second	Impulses per second from the medial styloconic sensilla, stimulus S [2, 9]: 65 impulses per second; Impulses per second from the medial styloconic sensilla, stimulus C [2, 10]: 15 impulses per second; Impulses per second from the medial styloconic sensilla, stimulus P [2, 10]: 47 impulses per second; Impulses per second from the medial styloconic sensilla, stimulus G [2, 10]: 28 impulses per second; Impulses per second from the medial styloconic sensilla, stimulus S [2, 10]: 48 impulses per second

From patent US20080220101A1, “COMPOSITIONS OF EXTRACTS OF ALOE FOR ORAL ADMINISTRATION” (priority 2007, published 2008)
